The source made the active and inactive calls. The calls are words filed in the database; no cut-off is given here.
Key:
[1] = biological target: Phosphodiesterases; PDE5 & PDE6 (Homo sapiens) (UniProt O76074+Q13956+P18545+P35913+O43924+P16499+P51160); assay: Selectivity for PDE6 compared to PDE5.; assay type: protein assay
[2] = biological target: T1, cGMP-specific 3',5'-cyclic phosphodiesterase (Homo sapiens, UniProt O76074); assay: Concentration required to inhibit phosphodiesterase type 5 (PDE5) isolated from corpus cavernosum by 50% was determined
[3] = biological target: T1, cGMP-specific 3',5'-cyclic phosphodiesterase; assay: Percentage inhibition against human phosphodiesterase type 5 isolated from corpus cavernosum at 100 nM.
[4] = Relative inhibition of PDEs 1-4 and PDE5
[5] = species on record: Oryctolagus cuniculus; assay: 0.50 Hz electrical frequency stimulated (EFS) relaxation of rabbit corpus cavernosum at 25-30 nM; assay type: functional
[6] = species on record: Oryctolagus cuniculus; assay: 1.0 Hz electrical frequency stimulated (EFS) relaxation of rabbit corpus cavernosum at 25-30 nM; assay type: functional
[7] = species on record: Oryctolagus cuniculus; assay: 4.0 Hz electrical frequency stimulated (EFS) relaxation of rabbit corpus cavernosum at 25-30 nM; assay type: functional
[8] = species on record: Oryctolagus cuniculus; assay: 16.0 Hz electrical frequency stimulated (EFS) relaxation of rabbit corpus cavernosum at 25-30 nM; assay type: functional
[9] = species on record: Oryctolagus cuniculus; assay: 2.0 Hz electrical frequency stimulated (EFS) relaxation of rabbit corpus cavernosum at 25-30 nM; assay type: functional
[10] = species on record: Oryctolagus cuniculus; assay: 8.0 Hz electrical frequency stimulated (EFS) relaxation of rabbit corpus cavernosum at 25-30 nM; assay type: functional

| Ratio [1] | IC50 [2] | inhibition [3] | SMILES | also measured |
| --- | --- | --- | --- | --- |
|  |  | 2% | CC(C)[C@@H](CO)Nc1nc2c(c(=O)n(C)c(=O)n2C)n1Cc1ccccc1 |  |
|  |  | 56% | CCn1c(=O)c2c(nc(NC3CCCC3)n2Cc2ccccc2)n(CC(C)C)c1=O |  |
| 89 | 0.69 nM |  | CCn1c(=O)c2c(nc(NC3CCCC3)n2Cc2ccc(OC)c(F)c2)n(CC)c1=O |  |
|  |  | 11% | CC(C)[C@H](CO)Nc1nc2c(c(=O)n(C)c(=O)n2C)n1Cc1ccccc1 |  |
| 219 | 1.7 nM |  | CCn1c(=O)c2c(nc(NC3CCCCC3)n2Cc2ccc(OC)c(Br)c2)n(CC)c1=O | Ratio [4]: > 10000 |
| inactive | 100 nM |  | CCn1c(=O)c2c(nc(NC3CCCCC3)n2Cc2cccc(OC)c2)n(CC)c1=O |  |
| 101 | 0.6 nM |  | CCn1c(=O)c2c(nc(NC3CCCCC3)n2Cc2ccc(O)cc2)n(CC)c1=O | Relaxation [5]: 25%; Relaxation [6]: 50%; Relaxation [7]: 75%; Relaxation [8]: 75%; Ratio [4]: > 3000; Relaxation [9]: 75%; Relaxation [10]: 75% |
| 364 | 0.33 nM |  | CCn1c(=O)c2c(nc(NC3CCCCC3)n2Cc2ccc(O)c(F)c2)n(CC)c1=O | Ratio [4]: > 12000 |
|  |  | 17% | Cn1c(=O)c2c(nc(N[C@@H]3CCC[C@H]3O)n2Cc2ccccc2)n(C)c1=O |  |
|  |  | 52% | CC(C)Cn1c(=O)n(C)c(=O)c2c1nc(NC1CCCCC1)n2Cc1ccccc1 |  |
| 350 | 0.3 nM |  | CCn1c(=O)c2c(nc(NC3CCCCC3)n2Cc2ccc(OC)c(F)c2)n(CC)c1=O | Ratio [4]: > 28000 |
| 261 | 1.8 nM |  | CCn1c(=O)c2c(nc(NC3CCCC3)n2Cc2ccc(O)c(Cl)c2)n(CC)c1=O |  |
|  |  | 10% | Cn1c(=O)c2c(nc(NCC3(O)CCCCC3)n2Cc2ccccc2)n(C)c1=O |  |
| 182 | 0.82 nM |  | CCn1c(=O)c2c(nc(NC3CCCC3)n2Cc2ccc(O)c(F)c2)n(CC)c1=O | Ratio [4]: > 4400 |
|  |  | 49% | CC(C)Cn1c(=O)n(C)c(=O)c2c1nc(NC1CCCC1)n2Cc1ccccc1 |  |
| 51 | 2.6 nM |  | CCn1c(=O)c2c(nc(NC3CCCCC3)n2Cc2ccc(OC)cc2)n(CC)c1=O |  |
| 36 | 1.2 nM |  | CCn1c(=O)c2c(nc(NC3CCCCC3)n2Cc2cccc(O)c2)n(CC)c1=O |  |
| 33 | 2.1 nM |  | CCn1c(=O)c2c(nc(NC3CCCC3)n2Cc2ccc(OC)cc2)n(CC)c1=O |  |
|  |  | 62% | Cn1c(=O)c2c(nc(NC3CCCC3)n2Cc2ccccc2)n(C)c1=O |  |

Continued, compound first:

| SMILES | Ratio [1] | IC50 [2] | inhibition [3] | also measured |
| --- | --- | --- | --- | --- |
| CCn1c(=O)c2c(nc(NC3CCCCC3)n2Cc2ccccc2)n(CC)c1=O | 35 | 12 nM | 93% |  |
| CCn1c(=O)c2c(nc(NC3CCCCC3)n2Cc2ccccc2)n(CC(C)C)c1=O |  |  | 63% |  |
| CCn1c(=O)c2c(nc(NC3CCCC3)n2Cc2ccc(O)cc2)n(CC)c1=O | 46 | 1.5 nM |  |  |
| Cn1c(=O)c2c(nc(NC3CCCCC3)n2Cc2ccccc2)n(C)c1=O |  |  | 54% |  |
| Cn1c(=O)c2c(nc(N[C@@H](CO)Cc3ccccc3)n2Cc2ccccc2)n(C)c1=O |  |  | 4% |  |
| CCn1c(=O)c2c(nc(NC3CCCCC3)n2Cc2ccc(O)c(C)c2)n(CC)c1=O | 133 | 4.5 nM |  |  |
| CCn1c(=O)c2c(nc(NC3CCCCC3)n2Cc2ccc(O)c(Cl)c2)n(CC)c1=O | 250 | 2 nM |  |  |
| Cn1c(=O)c2c(nc(N[C@H](CO)c3ccccc3)n2Cc2ccccc2)n(C)c1=O |  |  | 5% |  |
| CCn1c(=O)c2c(nc(NC3CCCCC3)n2Cc2ccc3c(c2)OCO3)n(CC)c1=O | 14 | 3.7 nM |  |  |
| CCn1c(=O)c2c(nc(NC3CCCC3)n2Cc2ccccc2)n(CC)c1=O | 21 |  | 91% |  |
| Cn1c(=O)c2c(nc(N[C@H](CO)Cc3ccccc3)n2Cc2ccccc2)n(C)c1=O |  |  | 0% |  |
| Cn1c(=O)c2c(nc(N[C@@H](CO)c3ccccc3)n2Cc2ccccc2)n(C)c1=O |  |  | 0% |  |
| CCn1c(=O)c2c(nc(NC3CCCCC3)n2Cc2ccc(OC)c(C)c2)n(CC)c1=O | 58 | 19 nM |  |  |
| CCn1c(=O)c2c(nc(NC3CCCC3)n2Cc2ccc(OC)c(Cl)c2)n(CC)c1=O | 118 | 1.1 nM |  |  |
| CCn1c(=O)c2c(nc(NC3CCCCC3)n2Cc2ccc(OC)c(Cl)c2)n(CC)c1=O | 345 | 0.58 nM |  | Ratio [4]: > 9500 |
